Data published in PubChem BioAssay AID434932 (The Scripps Research Institute Molecular Screening Center, 2010).
Calls of active or inactive are those of the source.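 The calls were made as follows: active = STAT1 activated, EC50 at most 10 µM; inactive = Over 10 µM EC50.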

System: NIH 3T3 STAT1-luciferase reporter, IFN-gamma, luminescence
Assay: STAT1 reporter activators in fibroblasts, late-stage follow-up, cell-based, luminescence, NIH 3T3, dose response, powders (AID 434932)

SMILES | EC50
Cc1cc(-c2ccc(F)cc2)n2ncc(-c3ccccc3)c2n1 | 0.0643 µM
Cc1nnc(SCC(=O)Nc2ccc(-c3nc4ccccc4s3)cc2)s1 | > 55.7 µM (inactive)
CC(=O)NC(=S)Nc1sc2c(c1C#N)CCCCC2 | > 55.7 µM (inactive)
O=C(/C=C/Nc1ccccc1F)c1ccc(Br)cc1 | > 55.7 µM (inactive)
O=C(Nc1nc2ccccc2s1)c1cc2ccccc2s1 | 0.835 µM
COc1ccc2[nH]c3c(c2c1)CCn1c-3nc2ccccc2c1=O | < 0.00283 µM
COc1ccc(-c2csc(N3C(=O)CNC3=S)n2)cc1 | 2.01 µM
CCN(CC)c1ccc2cc(C(=O)Nc3ccccn3)c(=O)oc2c1 | 10 µM (inactive)
CCOC(=O)/C(C#N)=C/c1cc(C)n(-c2ccccc2)c1C | 3.31 µM
COc1ccc(-c2cc(C)nc3c(-c4ccccc4)cnn23)cc1 | 4.04 µM
